According to patent publication US8114425B2, “Process for the production of wood-based materials” (LANXESS Deutschland GmbH, priority 2008, dated 2012):

Tests used:
[1] = system: Reticulitermes santonensis; assay: Termite resistance compulsory test analogous to EN 117 on OSB boards; assay type: in vivo; settings: OSB board with 0.00153% thiacloprid, PF glue outer layers, pressed at 190-200° C.; inspection of the surfaces after 8 weeks
Source text: Pine chips (strands for the production of OSB) whose fine fraction of <6 mm was removed by means of screening were wetted with phenol-formaldehyde glue (PF, manufacturer Georgia Pacific; type GP 155 C 42; pH about 11-13) for the outer layers and with polymethylene diisocyanate glue (PMDI; manufacturer Bayer; type Desmodur 1520 A 20) for the middle layer. The outer and middle layer chips treated in each case were then wetted with an aqueous solution containing 0.5% of thiacloprid and finally in each case with a wax emulsion (Sasolwax Hydrowax 730). The application was effected in each case using an atomizer (spinning disc system) in a chip mixer. The amount of alkaline binder was 4.5% of PF (or 2.5% of PMDI) solid resin mass fraction in the finished OSB board. This corresponds to about 10% mass fraction, based on the chips used, for the PF glue. The aqueous solution containing thiacloprid was used with 2000 ml/m^3 of finished OSB board. At a density of 650 kg/m^3, this corresponds to 0.00153% of thiacloprid, based on the finished OSB board. The proportion of wax was 0.8% by mass, based on the OSB board. The OSB wood composites produced were produced from 60% of PF glue-coated chips as outer layers and 40% of PMDI glue-coated chips as the middle layer in a press at 500 N/cm^2 and with press plate temperatures of 190-200° C. […]

[2] = Investigation of the thermal lability of thiacloprid in NaOH solution; assay type: physicochemical; settings: NaOH solution pH 13.7
Experimental: 5 g of NaOH were dissolved in 250 ml of distilled water (pH 13.7) and 100 mg of active substance were added. Stirring was then effected for 15 min at different temperatures. The mixture was extracted twice with methylene chloride, neutralized and evaporated down. The residue was weighed and was analysed by NMR, GC, GC-MS or HPLC.

## N#C/N=C1\SCCN1Cc1ccc(Cl)nc1 [thiacloprid]
[1]
  traces of feeding on test specimen surfaces: No measurable traces of feeding
[2]; 35° C., 15 min stirring
  stability in NaOH solution: stable
[2]; 75° C., 15 min stirring
  degradation in NaOH solution: 100%
[2]; 75° C., after only 15 min
  degradation in NaOH solution (in words): completely degraded
